Reference: article doi:10.1101/2024.08.19.608619, “Discovery of potent SARS-CoV-2 nsp3 macrodomain inhibitors uncovers lack of translation to cellular antiviral response” (bioRxiv, 2024)

Columns and labels:
[1] = system: kinase panel; test: Eurofins kinase panel; assay type: biochemical; settings: test compound 10 uM
[2] = iPSC pneumocytes cytotoxicity; assay type: cell-based; settings: protocol iPSC pneumocytes cytotoxicity
From the text: Supplement media-1.zip/Cytotoxicity.csv, table | column: cc10; cc50; perc_min_measured; perc_max_measured

[3] = target: HiBiT-tagged nsp3-mac1 in HEK293 cells (Severe acute respiratory syndrome coronavirus 2, UniProt P0DTD1); test: HiBiT Cellular Thermal Shift Assay / isothermal dose response thermal shift assay (ITDRF CETSA); assay type: cell-based, SARS-CoV-2; settings: fixed temperature 50.6°C
Method: A PCR product encoding SARS Cov-2 macrodomain residues 2 to 176 was cloned into the XhoI and BamHI restriction sites of the pBIT3.1-N vector (Promega) which has an N-terminal 11 amino acid HiBiT tag.
A PCR product encoding SARS Cov-2 macrodomain residues 1 to 176 was cloned into the HindIII and XhoI restriction sites of the pBIT3.1-C vector(Promega) which has an C-terminal 11 amino acid HiBiT tag.
Both constructs were evaluated for CETSA experiments and found to give similar results. For the results described the CHIBIT tag was used.
HiBiT Cellular Thermal Shift Assay (HiBiT-CETSA). To assess the engagement of nsp3-mac1 in intact cells, a HiBiT Cellular Thermal Shift Assay was conducted as described by Ramachandran et al. ([23]). The Nano-Glo HiBiT lytic detection system (Promega) was used according to the manufacturer’s instructions. Briefly, HEK293 cells were reverse-transfected with HiBiT-tagged nsp3-mac1 at a concentration of 400,000 cells/mL using the FuGENE transfection reagent (Promega). Following a 24-hour incubation period, the cells were trypsinized and resuspended in assay medium at the same concentration.
For CETSA, the cells were divided into two groups: one treated with 30 μM of the compounds and the other with DMSO as a control. […] The luminescence signals were measured using a PHERAstar FSX and analyzed with GraphPad Prism software (v.9 or v.10).

Structure (SMILES)	perc_activity ([1]; kinase ALK(h), ATP 200 uM) [%]	perc_activity ([1]; kinase AMPKα1(h), ATP 45 uM) [%]	perc_activity ([1]; kinase ASK1(h), ATP 200 uM) [%]	perc_activity ([1]; kinase Abl(h), ATP 45 uM) [%]	perc_activity ([1]; kinase Aurora-A(h), ATP 15 uM) [%]	CC50 [2] [nM]	EC50 [3] [nM]
CC(C)C(Nc1ncnc2[nH]ccc12)c1ccc2c(c1)S(=O)(=O)CCC2 (stereo not shown) [ASAP-0008327]	93	94	108	93	57	> 50000	–
Cc1nn(C)cc1-c1cc2c(NC(c3ccc4c(c3)S(=O)(=O)CCC4)C(C)C)ncnc2[nH]1 (stereo not shown) [ASAP-0011446]	–	–	–	–	–	–	14
